The structures appear in SMILES notation. Where two headings read alike, the source gives them in different places. Some results are limits rather than exact numbers.

In assay [1] the target is T1, human H3 receptor (Homo sapiens, UniProt Q9Y5N1).
T1 construct: expressed in transfected cells
The assay is described as follows: Human H3 radioligand binding ([3H]-N-alpha-methylhistamine, SPA). As to the method:
(§1) Methods: CHO cells stably expressing the human H3 receptor (GenBank: NM_007232) were harvested and cell pellets were frozen (−80° C.). Cell pellets were resuspended in 5 mM Tris-HCl, pH 7.5 with […] and a cocktail of protease inhibitors (Complete Protease Inhibitior Tablets, Roche Diagnostics). Cells were disrupted using a polytron cell homogenizer and the suspension was centrifuged at 1000×g for 10 minutes at 4° C. The pellet was discarded and the supernatant centrifuged at 40,000×g for 30 min at 4° C. This membrane pellet was washed in membrane buffer containing 50 mM Tris-HCl, pH 7.5 with 0.6 mM EDTA, 5 mM MgCl2 and protease inhibitors, recentrifuged as above and the final pellet resuspended in membrane buffer plus 250 mM sucrose and frozen at −80° C.
(§2) Radioligand Binding. Membranes were resuspended in 50 mM Tris HCl (pH 7.4), 5 mM MgCl2, 0.1% BSA. The membrane suspensions (10 μg protein per well) were incubated in a 96 well microtiter plate with [^3H]-N-alpha-methylhistamine (approximately 1 nM final concentration), test compounds at various concentrations (0.01 nM-30 μM) and scintillation proximity beads (Perkin Elmer, FlashBlueGPCR Scintillating Beads) in a final volume of 80 μl for 4 hours at room temperature, protected from light. Non-specific binding was determined in the presence of 10 μM clobenpropit. Radioligand bound to receptor, and therefore in proximity to the scintillation beads, was measured using a MicroBeta scintillation counter.

Assay [2] has as its target T2, rat histamine H3 receptor (Rattus norvegicus, UniProt Q9QYN8).
T2 construct: encoding the entire 445-amino-acid rat histamine H3 receptor; expressed in transfected cells; membrane preparation
The assay is described as follows: Rat H3 radioligand binding ([3H]-N-alpha-methylhistamine, SPA).
From the text: as §1, with “Cell line development and membrane preparation. The rat” for “Methods: CHO cells stably expressing the human”, “cDNA was PCR amplified from reverse-transcribed RNA pooled from rat thalamus, hypothalamus, striatum and prefrontal cortex with a sequence corresponding to by #338-1672 of Genbank file #NM_053506, encoding the entire 445-amino-acid rat histamine H3 receptor. This was engineered into the pIRES-neo3 mammalian expression vector, which was stably transfected into the CHO-A3 cell line (Euroscreen, Belgium), followed by clonal selection by limiting dilution. Cells” for “(GenBank: NM_007232)”
as §2

The mark [3] stands for this setting: Table A, human H3 binding, read-out: Human Ki.
The mark [4] stands for this setting: Table A, rat H3 binding, read-out: Rat Ki.
Setting [5] is: Human H3 binding, Table B, Examples 136-362, read-out: hum H3 binding Ki.
[6] abbreviates: Rat H3 binding, Table B, Examples 136-362, read-out: rat H3 binding Ki.
Where [7] appears, read: Table C, human H3 binding, read-out: Human H3 Ki.
Where [8] appears, read: Table C, rat H3 binding, read-out: Rat H3 Ki.
Where [9] appears, read: human H3 binding, Table D, read-out: Human H3 Ki.
[10] abbreviates: rat H3 binding, Table D, read-out: Rat H3 Ki.

T2 sequence (Q9QYN8 whole entry): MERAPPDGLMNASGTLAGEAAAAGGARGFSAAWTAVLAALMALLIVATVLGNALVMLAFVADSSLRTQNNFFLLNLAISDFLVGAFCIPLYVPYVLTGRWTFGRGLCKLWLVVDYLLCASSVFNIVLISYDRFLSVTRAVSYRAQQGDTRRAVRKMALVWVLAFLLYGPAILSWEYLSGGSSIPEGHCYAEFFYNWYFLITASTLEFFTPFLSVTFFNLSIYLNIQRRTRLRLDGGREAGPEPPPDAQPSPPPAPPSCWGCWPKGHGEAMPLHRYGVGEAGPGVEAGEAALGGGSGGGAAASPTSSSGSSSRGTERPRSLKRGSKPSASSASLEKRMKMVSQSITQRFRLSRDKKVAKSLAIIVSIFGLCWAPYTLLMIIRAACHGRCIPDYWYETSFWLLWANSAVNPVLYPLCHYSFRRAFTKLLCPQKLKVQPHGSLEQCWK
T1 sequence (Q9Y5N1 whole entry): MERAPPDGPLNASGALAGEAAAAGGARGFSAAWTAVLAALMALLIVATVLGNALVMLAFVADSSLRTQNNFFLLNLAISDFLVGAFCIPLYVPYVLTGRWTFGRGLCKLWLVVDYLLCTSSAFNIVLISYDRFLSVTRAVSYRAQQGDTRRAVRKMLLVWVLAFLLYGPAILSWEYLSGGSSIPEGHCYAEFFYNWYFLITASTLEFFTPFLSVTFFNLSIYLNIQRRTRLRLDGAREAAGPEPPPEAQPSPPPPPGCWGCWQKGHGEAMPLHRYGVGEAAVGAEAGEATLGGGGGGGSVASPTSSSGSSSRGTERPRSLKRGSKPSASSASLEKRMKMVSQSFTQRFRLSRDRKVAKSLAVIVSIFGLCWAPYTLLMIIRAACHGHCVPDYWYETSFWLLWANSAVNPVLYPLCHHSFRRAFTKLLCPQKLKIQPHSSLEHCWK

In the case of `N#Cc1ccc(-c2ccc3c(c2)CCC2(CCN(C4CCC4)CC2)O3)cc1` [Example 110], the Ki in assay [1] (setting [3]) and in assay [2] (setting [4]) was under 0.2 µM in each case.
`COCCN(C)C(=O)c1ccc(-c2ccc3c(c2)COC2(CCN(C4CCC4)CC2)O3)cc1F` [Example 300]: the Ki in assay [1] (setting [5]) and in assay [2] (setting [6]) was under 0.2 µM each time.
For `CC(C)CN1CC(c2ccc3c(c2)COC2(CCN(C4CCC4)CC2)O3)CCC1=O` (stereo not drawn) [Example 564], the Ki in assay [1] (read-out: Human H3 Ki) and in assay [2] (read-out: Rat H3 kI) was under 0.2 µM each time.
With `CC(C)Cn1cc(-c2ccc3c(c2)COC2(CCN(C4CCC4)CC2)O3)ccc1=O` [Example 562], the Ki in assay [1] (read-out: Human H3 Ki) and in assay [2] (read-out: Rat H3 kI) was under 0.2 µM each time.
As for `COCCN(C)C(=O)c1ccc(-c2ccc3c(c2)CCC2(CCN(C4CCC4)CC2)O3)cc1F` [Example 294], the Ki in assay [1] (setting [5]) and in assay [2] (setting [6]) was under 0.2 µM each time.
As to `O=C(O)c1c(F)cc(-c2ccc3c(c2)COC2(CCN(C4CCC4)CC2)O3)cc1F` [Example 334], the Ki was 0.2 to 1 µM in assay [1] (setting [5]) and over 0.3 µM in assay [2] (Rat H3 binding, Table B, given as numeric bound instead of class symbol, read-out: rat H3 binding Ki).
On to `c1cc2c(cc1-c1ccc3nonc3c1)CCC1(CCN(C3CCC3)CC1)O2` [Example 112], for which the Ki in assay [1] (setting [3]) and in assay [2] (setting [4]) was under 0.2 µM in each case.
As for `CS(=O)(=O)N1CCC(Oc2ccc3c(c2)CCC2(CCN(C4CCC4)CC2)O3)CC1` [Example 408], the Ki in assay [1] (setting [7]) and in assay [2] (setting [8]) was under 0.2 µM each time.
Turning to `O=S1(=O)CCC(COc2ccc3c(c2)CCC2(CCN(C4CCC4)CC2)O3)CC1` [Example 500], the Ki in assay [1] (read-out: Human H3 Ki) and in assay [2] (read-out: Rat H3 kI) was under 0.2 µM in each case.
For `N#Cc1ccc(-c2ccc3c(c2)COC2(CCN(C4CCC4)CC2)O3)cc1` [Example 3], the Ki in assay [1] (setting [3]) and in assay [2] (setting [4]) was under 0.2 µM each time.
Regarding `Fc1ncccc1-c1ccc2c(c1)CCC1(CCN(C3CCC3)CC1)O2` [Example 118], the Ki in assay [1] (setting [3]) and in assay [2] (setting [4]) was under 0.2 µM in each case.
As to `COc1ccc(CCc2ccc3c(c2)COC2(CCN(C4CCC4)CC2)O3)cn1` [Example 522], the Ki in assay [1] (read-out: Human H3 Ki) and in assay [2] (read-out: Rat H3 kI) was under 0.2 µM in each case.
For `c1nc(Cc2ccc3c(c2)COC2(CCN(C4CCC4)CC2)O3)cs1` [Example 701], the Ki in assay [1] (setting [9]) and in assay [2] (setting [10]) was under 0.2 µM throughout.
Turning to `c1ncc(Cc2ccc3c(c2)COC2(CCN(C4CCC4)CC2)O3)s1` [Example 690], the Ki in assay [1] (setting [9]) and in assay [2] (setting [10]) was under 0.2 µM each time.
On to `CN(C)S(=O)(=O)c1ccc(-c2ccc3c(c2)COC2(CCN(C4CCC4)CC2)O3)cc1` [Example 32], for which the Ki in assay [1] (setting [3]) and in assay [2] (setting [4]) was under 0.2 µM in each case.
Regarding `c1cncc(-c2ccc3c(c2)COC2(CCN(C4CCC4)CC2)O3)c1` [Example 7], the Ki in assay [1] (setting [3]) and in assay [2] (setting [4]) was under 0.2 µM each time.
In the case of `Cn1cc(-c2ccc3c(c2)CCC2(CCN(C4CCC4)CC2)O3)cn1` [Example 111], the Ki in assay [1] (setting [3]) and in assay [2] (setting [4]) was under 0.2 µM in each case.
With `O=S(=O)(c1ccc(-c2ccc3c(c2)COC2(CCN(C4CCC4)CC2)O3)cc1)N1CCOCC1` [Example 17], the Ki in assay [1] (setting [3]) and in assay [2] (setting [4]) was under 0.2 µM in each case.
Regarding `c1cc(-c2ccc3c(c2)COC2(CCN(C4CCC4)CC2)O3)ccn1` [Example 10], the Ki in assay [1] (setting [3]) and in assay [2] (setting [4]) was under 0.2 µM in each case.
As for `NC(=O)c1ccc(N2CCN(c3ccc4c(c3)CCC3(CCN(C5CCC5)CC3)O4)CC2)nc1` [Example 379], the Ki in assay [1] (setting [7]) and in assay [2] (setting [8]) was under 0.2 µM in each case.
On to `O=C(c1cccc(-c2ccc3c(c2)COC2(CCN(C4CCC4)CC2)O3)c1)N1CCOCC1` [Example 56], for which the Ki in assay [1] (setting [3]) and in assay [2] (setting [4]) was under 0.2 µM in each case.
As for `Cc1c(-c2ccc(=O)n(C)c2)ccc2c1COC1(CCN(C3CCC3)CC1)O2` [Example 557], the Ki in assay [1] (read-out: Human H3 Ki) and in assay [2] (read-out: Rat H3 kI) was under 0.2 µM each time.
`COC1CCN(c2ccc3c(c2)CCC2(CCN(C4CCC4)CC2)O3)CC1` [Example 380]: the Ki in assay [1] (setting [7]) and in assay [2] (setting [8]) was under 0.2 µM throughout.
For the compound `CCS(=O)(=O)c1ccc(-c2ccc3c(c2)COC2(CCN(C4CCC4)CC2)O3)cc1` [Example 20], the Ki in assay [1] (setting [3]) and in assay [2] (setting [4]) was under 0.2 µM in each case.

(Values after US8513232B2, “Substituted spirocyclic piperidine derivatives as histamine-3 (H3) receptor ligands” (Cephalon, Inc., priority 2008, dated 2013).)
